For the experiment, the system named is HeLa-Luc-Cas9 cells. Put plainly: sgRNA delivery to HeLa-Luc-Cas9 cells (luciferase editing, ONE-Glo+Tox). It is filed as cell-based. How it is done: sgRNA delivery to HeLa-Luc-Cas9 cells: Select ZALs were evaluated in the delivery of single guide RNA (sgRNA) to HeLa-Luc-Cas9 cells. In a white opaque 96-well plate tissue culture plate, HeLa-Luc-Cas9 cells were seeded at a density of 5×10^3 cells per well in 100 μL growth medium (DMEM without phenol red, 5% FBS), and allowed to attach overnight and then supplemented with an additional 100 μL DMEM. ZALs-sgRNA nanoparticles were formulated using the in vitro nanoparticle formulation protocol at the indicated lipid composition and weight ratio (maintaining 50:38.5 ZAL:cholesterol mole ratio, tuningPEG-lipid additive from 5% to 0.5%, and tuning weight ratio from 20:1 ZAL:sgRNA to 5:1 ZAL:sgRNA). Luciferase deletion was evaluated using a single guide RNA designed against luciferase using the CRISPR.mit.edu algorithm, while non-targeting control sgRNA (sgScr) was used as a negative control. The nanoparticles were added to the cells at a dose of 50 ng sgRNA per well and incubated with the cells for 24 h or 48 h. RNAiMax (Invitrogen) formulated according to the manufacturer's protocol with sgLuc or sgScr was used as a positive control. After 24 h or 48 h, the cell viability and luciferase expression were evaluated with the ONE-Glo+Tox Assay cell viability and luciferase assay (Promega).
Select ZALs were evaluated in the delivery of single guide RNA (sgRNA) to HeLa-Luc-Cas9 cells. In a white opaque 96-well plate tissue culture plate, HeLa-Luc-Cas9 cells were seeded at a density of 5×10^3 cells per well in 100 μL growth medium (DMEM without phenol red, 5% FBS), and allowed to attach overnight and then supplemented with an additional 100 μL DMEM. ZNPs encapsulating sgRNA were formulated using the in vitro nanoparticle formulation protocol at the indicated lipid composition and weight ratio (maintaining 50:38.5 (ZAL:cholesterol mole ratio), tuning PEG-lipid additive from 5% to 0.5%, and tuning weight ratio from 20:1 ZAL:sgRNA to 5:1 ZAL:sgRNA). Non-targeting control sgRNA (sgCtrl) was used as a negative control. The nanoparticles were added to the cells at the appropriate dose of sgRNA and incubated with the cells for 48 h. The cell viability and luciferase expression were evaluated with the ONE-Glo+Tox Assay (Promega), normalized to untreated cells (N=4+/−standard deviation).

[1] abbreviates: PEG 2%, 1%, 0.5%, ZAL:sgRNA 20:1, 10:1, 7.5:1, 5:1, 7.4 nM, 48 h.

“Also recorded” adds a separate entry of the source. Where only a bound is given, the exact number is not on record here.

On to `CCCCCCCCC(O)CN(CCC(=O)NCC[N+](C)(C)CCCS(=O)(=O)[O-])CCN(CCN(CC(O)CCCCCCCC)CC(O)CCCCCCCC)CCN(CC(O)CCCCCCCC)CC(O)CCCCCCCC` (centres unmarked) [ZA3-Ep10], for which, under setting [1], the “formulation with the best luciferase editing” value is 7.5:1 weight ratio and 0.5% PEG; the “sgLuc delivery by formulations with tuned PEG content and weight ratio” value is “potent”. Further, the “sgRNA (sgLuc) delivery, rank among lead ZALs” value (lead ZALs from the siRNA screen, HeLa-Luc-Cas9 cells, 48 h) is recorded as “most highly potent; also recorded: efficacious”. Also, for the setting “sgLuc ZNPs, HeLa-Luc-Cas9 cells”, the “luciferase expression versus sgRNA dose” value is on record as “dose-dependent decrease”. Moreover, the luciferase silencing (sgRNA at 14.7 nM and 7.4 nM, 48 h, ZNPs 50:38.5:1 ZAL:cholesterol:PEG-lipid, 20:1 ZAL:sgRNA weight ratio) is reported as above 95%.
